Reference: patent EP4778924A1 (Huons Co., Ltd., priority 2023, dated 2025)
Structures can show the parent of a compound that is named as a salt.

Columns and labels:
[1] = target: T1, Proton Pump (H^+,K^+-ATPase) (Sus scrofa, UniProt P19156); assay: Inhibitory activity on proton pump (H+,K+-ATPase) activity, porcine gastric vesicles, malachite green readout; assay type: biochemical; settings: for IC50: porcine gastric vesicles, pH 6.5, 8 mM KCl, 0.2 mM ATP; for inhibitory activity against proton pump activity: result in words
T1 construct: gastric vesicles were isolated from porcine stomachs; from tissue; host or cells: porcine stomach (gastric vesicles)
Outline: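 Porcine gastric vesicles (100 ng) preincubated 30 min at 37°C with […] valinomycin and compound (0.1% DMSO final) in 50 mM Tris-HEPES, 5 mM MgCl2, 8 mM KCl, pH 6.5, then 0.2 mM ATP for 20 min at 37°C. Released phosphate measured by malachite green at 620 nm; IC50 via nonlinear regression of % inhibition.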

[2] = tested on: Pylorus-Ligated Rats; assay: Inhibitory activity on basal gastric acid secretion in pylorus-ligated rats (Shay's rat model); assay type: in vivo, male Sprague Dawley (SD) rats; settings: for inhibition in vivo at 2 mg/kg: Rattus norvegicus, po, read-out: GERD (rat/mpk); for inhibitory activity against basal gastric acid secretion: result in words, pyloric-ligated rats
Procedure: Specifically, male Sprague Dawley (SD) rats (weighing 180-220 g) were fasted for 24 hours with only water, and then randomly assigned to groups (n=4-5) after measuring body weight. The negative control group was orally administered 10% dimethylsulfoxide (DMSO)/10% Cremophor EL/80% D.W. at 2 mL/kg, and the test group was orally administered the test compound at 2 mg/kg/2 mL. One hour after administration, the rats' abdominal cavity was incised under isoflurane anesthesia, the stomach was exposed, and the pylorus was ligated. Three hours after ligation, the test animals were sacrificed and the stomach contents were collected by laparotomy again. The contents were centrifuged (3,000 rpm, 10 min), and only the supernatant was separated to obtain gastric juice. Afterwards, gastric fluid volume measurement, gastric fluid pH measurement, NaOH titration, and total gastric acid secretion calculation (gastric fluid volume × 0.1 N NaOH titer × 100) were sequentially performed.

T1 sequence (P19156 2-1034 limits assumed): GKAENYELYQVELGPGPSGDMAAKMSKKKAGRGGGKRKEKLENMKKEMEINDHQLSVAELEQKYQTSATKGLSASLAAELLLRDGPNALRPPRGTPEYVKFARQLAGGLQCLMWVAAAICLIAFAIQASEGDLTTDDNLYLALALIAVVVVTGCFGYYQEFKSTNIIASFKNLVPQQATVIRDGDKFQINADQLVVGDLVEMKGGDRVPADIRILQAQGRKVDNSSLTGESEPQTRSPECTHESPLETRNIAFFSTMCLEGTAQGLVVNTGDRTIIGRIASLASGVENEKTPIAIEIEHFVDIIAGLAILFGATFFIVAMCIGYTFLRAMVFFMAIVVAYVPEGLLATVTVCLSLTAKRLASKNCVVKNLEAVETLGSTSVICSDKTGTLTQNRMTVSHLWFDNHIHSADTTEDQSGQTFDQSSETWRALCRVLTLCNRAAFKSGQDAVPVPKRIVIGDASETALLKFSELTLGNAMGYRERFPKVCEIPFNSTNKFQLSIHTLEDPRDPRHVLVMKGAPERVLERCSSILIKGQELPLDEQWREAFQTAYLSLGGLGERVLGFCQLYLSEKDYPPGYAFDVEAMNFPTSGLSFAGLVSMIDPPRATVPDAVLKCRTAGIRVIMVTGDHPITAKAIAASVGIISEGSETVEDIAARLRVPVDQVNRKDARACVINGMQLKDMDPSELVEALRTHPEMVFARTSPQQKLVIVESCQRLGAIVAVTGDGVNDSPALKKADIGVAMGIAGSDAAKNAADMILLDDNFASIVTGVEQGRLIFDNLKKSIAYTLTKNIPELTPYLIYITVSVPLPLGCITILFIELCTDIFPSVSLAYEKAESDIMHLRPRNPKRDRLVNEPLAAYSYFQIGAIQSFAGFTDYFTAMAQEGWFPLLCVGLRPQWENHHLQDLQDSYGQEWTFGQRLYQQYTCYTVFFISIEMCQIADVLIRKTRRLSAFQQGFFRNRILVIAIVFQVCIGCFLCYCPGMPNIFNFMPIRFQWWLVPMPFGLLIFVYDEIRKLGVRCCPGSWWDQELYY
T1 sequence (P18434 whole entry partner): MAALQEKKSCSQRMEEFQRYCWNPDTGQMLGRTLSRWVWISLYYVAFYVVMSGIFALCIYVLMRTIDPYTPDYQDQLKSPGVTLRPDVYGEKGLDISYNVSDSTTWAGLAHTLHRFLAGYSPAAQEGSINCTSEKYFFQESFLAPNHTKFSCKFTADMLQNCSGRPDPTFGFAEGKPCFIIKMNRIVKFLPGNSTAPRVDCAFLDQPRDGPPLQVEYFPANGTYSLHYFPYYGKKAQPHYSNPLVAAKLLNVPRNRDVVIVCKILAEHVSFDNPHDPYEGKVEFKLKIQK

Compound	IC50 [1]	inhibitory activity against proton pump activity [1]	inhibition in vivo at 2 mg/kg [2]	inhibitory activity against basal gastric acid secretion ([2]; 2 mg/kg oral)	GERD (rat/mpk) ([2]; % inhibitory activity on total gastric acid secretion, 2 mg/kg oral, pylorus ligated 1 h after administration, stomach contents collected 3 h after ligation)
CC(=O)Nc1cc(NCc2c(C)cccc2C)c2nc(C)c(C)n2c1 [Example 4, N-(8-((2,6-dimethylbenzyl)amino)-2,3-dimethylimidazo[1,2-a]pyridin-6-yl)acetamide]	< 50 nM	excellent inhibitory properties	≥ 90%	inhibitory activity	–
COCC(=O)Nc1cc(NCc2c(C)cccc2C)c2nc(C)c(C)n2c1 [Example 15, N-(8-((2,6-dimethylbenzyl)amino)-2,3-dimethylimidazo[1,2-a]pyridin-6-yl)-2-methoxyacetamide]	< 50 nM	excellent inhibitory properties	≥ 90%	inhibitory activity	–
CC(=O)Nc1cc(NCc2c(C)cc(F)cc2C)c2nc(C)c(C)n2c1 [Example 21, N-(8-((4-fluoro-2,6-dimethylbenzyl)amino)-2,3-dimethylimidazo[1,2-a]pyridin-6-yl)acetamide]	< 50 nM	excellent inhibitory properties	≥ 90%	inhibitory activity	–
Cc1cccc(C)c1CNc1cc(NC(=O)CO)cn2c(C)c(C)nc12 [Example 26, N-(8-((2,6-dimethylbenzyl)amino)-2,3-dimethylimidazo[1,2-a]pyridin-6-yl)-2-hydroxyacetamide]	< 50 nM	excellent inhibitory properties	≥ 90%	inhibitory activity	–
CC(=O)Nc1cc(NCc2c(C)cc(F)cc2C)c2nc(C)c(C)n2c1.Cl [Example 45, N-(8-((4-fluoro-2,6-dimethylbenzyl)amino)-2,3-dimethylimidazo[1,2-a]pyridin-6-yl)acetamide hydrochloride]	–	–	–	inhibitory activity	A (A≥90%)
Cc1cccc(C)c1CNc1cc(N2C(=O)CNC2=O)cn2c(C)c(C)nc12 [Example 60, 3-(8-((2,6-dimethylbenzyl)amino)-2,3-dimethylimidazo[1,2-a]pyridin-6-yl)imidazolidine-2,4-dione]	< 50 nM	excellent inhibitory properties	≥ 90%	inhibitory activity	–
Cc1cccc(C)c1CNc1cc(NC(=O)[C@@H]2CN2)cn2c(C)c(C)nc12 [Example 109, (S)-N-(8-((2,6-dimethylbenzyl)amino)-2,3-dimethylimidazo[1,2-a]pyridin-6-yl)aziridine-2-carboxamide hydrochloride]	100 to 500 nM	–	–	–	–
Cc1cccc(C)c1CNc1cc(NC(=O)[C@H]2CCN(C(=O)CO)C2)cn2c(C)c(C)nc12 [Example 110, (S)-N-(8-((2,6-dimethylbenzyl)amino)-2,3-dimethylimidazo[1,2-a]pyridin-6-yl)-1-(2-hydroxyacetyl)pyrrolidine-3-carboxamide citrate]	100 to 500 nM	–	–	–	–
CC(=O)O[C@H](C)C(=O)Nc1cc(NCc2c(C)cc(F)cc2C)c2nc(C)c(C)n2c1 [Example 111, (R)-1-((8-((4-fluoro-2,6-dimethylbenzyl)amino)-2,3-dimethylimidazo[1,2-a]pyridin-6-yl)amino)-1-oxopropan-2-yl acetate]	100 to 500 nM	–	–	–	–
CC(=O)O[C@@H](C)C(=O)Nc1cc(NCc2c(C)cc(F)cc2C)c2nc(C)c(C)n2c1 [Example 112, (S)-1-((8-((4-fluoro-2,6-dimethylbenzyl)amino)-2,3-dimethylimidazo[1,2-a]pyridin-6-yl)amino)-1-oxopropan-2-yl acetate]	> 500 nM	–	–	–	–
CC(=O)OC1(C(=O)Nc2cc(NCc3c(C)cc(F)cc3C)c3nc(C)c(C)n3c2)CC1 [Example 113, 1-((8-((4-fluoro-2,6-dimethylbenzyl)amino)-2,3-dimethylimidazo[1,2-a]pyridin-6-yl)carbamoyl)cyclopropyl acetate]	100 to 500 nM	–	–	–	–
Cc1cc(F)cc(C)c1CNc1cc(NC(=O)[C@H](C)O)cn2c(C)c(C)nc12 [Example 114, (S)-N-(8-((4-fluoro-2,6-dimethylbenzyl)amino)-2,3-dimethylimidazo[1,2-a]pyridin-6-yl)-2-hydroxypropanamide]	100 to 500 nM	–	–	–	–
Cc1cc(F)cc(C)c1CNc1cc(NC(=O)C2(O)CC2)cn2c(C)c(C)nc12 [Example 115, N-(8-((4-fluoro-2,6-dimethylbenzyl)amino)-2,3-dimethylimidazo[1,2-a]pyridin-6-yl)-1-hydroxycyclopropane-1-carboxamide]	< 50 nM	excellent inhibitory properties	–	–	–
Cc1cc(F)cc(C)c1CNc1cc(N2C(=O)CN(C)C2=O)cn2c(C)c(C)nc12 [Example 116, 3-(8-((4-fluoro-2,6-dimethylbenzyl)amino)-2,3-dimethylimidazolidine[1,2-a]pyridin-6-yl)-1-methylimidazolidine-2,4-dione]	50 to 100 nM	–	–	–	–
Cc1cc(F)cc(C)c1CNc1cc(NC(=O)[C@@H](C)O)cn2c(C)c(C)nc12 [Example 117, (R)-N-(8-((4-fluoro-2,6-dimethylbenzyl)amino)-2,3-dimethylimidazo[1,2-a]pyridin-6-yl)-2-hydroxypropanamide]	< 50 nM	excellent inhibitory properties	–	–	–
Cc1cccc(C)c1CNc1cc(NC(=O)[C@H]2CCCNC2)cn2c(C)c(C)nc12 [Example 118, (S)-N-(8-((2,6-dimethylbenzyl)amino)-2,3-dimethylimidazo[1,2-a]pyridin-6-yl)piperidine-3-carboxamide hydrochloride]	100 to 500 nM	–	–	–	–
Cc1cccc(C)c1CNc1cc(NC(=O)CCNC(=O)CO)cn2c(C)c(C)nc12 [Example 119, N-(8-((2,6-dimethylbenzyl)amino)-2,3-dimethylimidazo[1,2-a]pyridin-6-yl)-3-(2-hydroxyacetamido)propanamide]	50 to 100 nM	–	–	–	–
Cc1cccc(C)c1CNc1cc(NC(=O)[C@H]2CCCN(C(=O)CO)C2)cn2c(C)c(C)nc12 [Example 120, (S)-N-(8-((2,6-dimethylbenzyl)amino)-2,3-dimethylimidazo[1,2-a]pyridin-6-yl)-1-(2-hydroxyacetyl)piperidine-3-carboxamide]	100 to 500 nM	–	–	–	–
Cc1cccc(C)c1CNc1cc(N)cn2c(C)c(C)nc12 [Preliminary Example 1, N^8-(2,6-dimethylbenzyl)-2,3-dimethylimidazo[1,2-a]pyridine-6,8-diamine]	50 to 100 nM	–	–	–	–
Cc1cc(F)cc(C)c1CNc1cc(N)cn2c(C)c(C)nc12 [Preliminary Example 2, N^8-(4-fluoro-2,6-dimethylbenzyl)-2,3-dimethylimidazo[1,2-a]pyridine-6,8-diamine hydrochloride]	50 to 100 nM	–	–	–	–
Cc1nc2c(O[C@H]3CCOc4cc(F)cc(F)c43)cc(C(=O)N(C)C)cc2[nH]1 [Tegoprazan, reference compound]	> 500 nM	–	–	–	–
tert-butyl (2-(3-(8-((2,6-dimethylbenzyl)amino)-2,3-dimethylimidazo[1,2-a]pyridin-6-yl)ureido)ethyl)carbamate hydrochloride [Example 42]	100 to 500 nM	–	–	–	–
